Literature values in patent US20250312371A1, “CROSS-LINKED POLYMERIC CHELATORS COMPOSITIONS AND USE THEREOF” (THE UNIVERSITY OF KANSAS, priority 2021, published 2025).

relative iron binding constant (Fe(III)): 35.5
SMILES: O=C(N[C@H]1COC(=O)[C@@H](NC(=O)c2cccc(O)c2O)COC(=O)[C@@H](NC(=O)c2cccc(O)c2O)COC1=O)c1cccc(O)c1O [Enterobactin]
Log K (iron chelation): 52
